PMC11685355, “Solid lipid nanoparticles for increased oral bioavailability of acalabrutinib in chronic lymphocytic leukaemia” (Discover Nano, 2024)
Converted amounts (≈) assume the structure as drawn. Where two headings read alike, the source gives them in different places.

Tests used:
[1] = design: method as in doi:10.1002/sscp.202400110; details: Wistar rats; cited from earlier work
[2] = cited from earlier work
[3] = cited from earlier work; remark: listed apart in the source
[4] = In vitro dissolution studies, USP type II apparatus; type: physicochemical; details: pH 6.8, 0.5% w/v SDS, within 2 h
Protocol: Dissolution studies were performed using USP type II dissolution apparatus under conditions simulating the fluids in different parts of the gastrointestinal tract (200 mL of pH 1.2 ± 0.02; 4.5 ± 0.02 buffer; and 900 mL of pH 6.8 ± 0.02 buffer) and blood/plasma (500 mL of pH 7.4 ± 0.02 buffer). […] The temperature was maintained at 37 ± 2 °C with a constant stirring rate of 75 rpm. At predetermined time intervals, 1000 μL samples were withdrawn from the dissolution media via a syringe and replenished with the same volume of fresh media (to retain the sink condition). The samples were immediately centrifuged at 15,373 × g in an ultracentrifuge. The supernatant was collected, diluted with mobile phase (methanol with 10 mM (pH 3.5) ammonium acetate buffer at a ratio of 52:48), and analysed via an HPLC–UV-based analytical method (mentioned in Sect. 3.2). The dissolution data obtained were contoured into different mathematical models (zero order; first order; and Higuchi square root kinetics) to determine the kinetics of drug release. The best fit model was analysed on the basis of the regression coefficient.

[5] = Solubility of ACP in surfactant solutions; type: physicochemical; details: aqueous with cosolvent or surfactant or cyclodextrin
Protocol: Surfactants are primarily chosen on the basis of two criteria: firstly, the affinity of ACP towards the aqueous solution in the presence of the surfactant; and secondly, their capacity to form a stable emulsion when the solid lipid is combined with the aqueous phase. […] Further, on the basis of the solubility of ACP in various surfactants, separate placebo batches of SLNs were prepared using the selected surfactant(s), in order to assess their ability to stabilize the SLNs by evaluating the particle size via dynamic light scattering.

[6] = Saturation solubility of ACP in buffers with 0.5% w/v SDS; type: physicochemical; details: buffer systems with 0.5% w/v SDS; pH 4.5; 6.8; and 7.4 in the presence of 0.5% w/v SDS
Excerpt: The inherent hydrophobicity of ACP results in a solubility profile that is dependent on pH. […] It is very important to maintain sink condition during the in vitro dissolution study of any drug product. To maintain sink condition in the in vitro dissolution studies of hydrophobic drugs, various strategies can be employed, including, addition of surfactant; maintaining large volumes of dissolution media; addition of co-solvents; and use of a different dissolution apparatus like a flow through cell etc.. Of all the above strategies, addition of surfactants (either ionic or non-ionic) is the most commonly employed strategy. SDS, an anionic surfactant, is used to improve the wettability and saturation solubility of hydrophobic drugs in aqueous media. Researchers have used SDS in the range of 0.2 to 20% w/v to maintain the sink condition in the in vitro dissolution studies of formulations containing hydrophobic molecules. Thus, in order to achieve a sink condition, 0.5% w/v SDS was added in buffer systems having a pH of 4.5 and higher. […] Based on the above criteria, we have determined the minimum volume of pH 4.5, pH 6.8 and pH 7.4 (containing 0.5% w/v SDS) required to dissolve the entire drug dose administered in the formulation to be at least 130 mL.

[7] = Solubility of ACP in molten solid lipids; type: physicochemical
Protocol: The solid lipids were screened on the basis of biocompatibility and visual evaluation of the solubility of ACP in the lipids. Solid lipids such as GB (Compritol® 888 ATO), glyceryl di-stearate (Precirol ATO 5), glyceryl trimyristate (Dynasan 114), stearic acid, SP (Kolliwax® S) and cetyl palmitate were selected for solubility studies, as they were reported to be biocompatible. In the solubility studies, approximately 200 mg of each lipid was weighed separately and melted by heating to 5–10 °C above its corresponding melting point using a magnetic stirrer equipped with a temperature controlling program. ACP was added in small amounts to each lipid (in molten state), incrementally, up to a maximum of 100 mg under continuous stirring (150–200 rpm) while maintaining the temperature (5–10 °C above its corresponding melting point) until some amount of ACP was present in undissolved / powder form in the lipid. Further, the lipids in which the drug has similar solubility, the lipid solutions (ACP dissolved in lipid) were maintained at the same temperature for 60 min to observed for any precipitation of the drug.

ACP dissolved [4]: more than 80%
solubility ([5]; aqueous surfactant solution (Gelucire 44/14), Gelucire 44/14 0.15 % w/v, read-out: ACP solubility): 1.36 µg/mL (≈ 2.92 µM)
solubility ([5]; aqueous surfactant solution (Gelucire 44/14), Gelucire 44/14 2 % w/v, read-out: ACP solubility): 2.27 µg/mL (≈ 4.88 µM)
solubility ([5]; aqueous surfactant solution (Gelucire 48/16), Gelucire 48/16 0.15 % w/v, read-out: ACP solubility): 1.18 µg/mL (≈ 2.54 µM)
solubility ([5]; aqueous surfactant solution (Gelucire 48/16), Gelucire 48/16 2 % w/v, read-out: ACP solubility): 2.96 µg/mL (≈ 6.36 µM)
solubility ([5]; aqueous surfactant solution (PVP K30), Polyvinyl Pyrrolidone (PVP)- K30 0.15 % w/v, read-out: ACP solubility): 0.748 µg/mL (≈ 1.61 µM)
solubility ([5]; aqueous surfactant solution (PVP K30), Polyvinyl Pyrrolidone (PVP)- K30 2 % w/v, read-out: ACP solubility): 2.27 µg/mL (≈ 4.88 µM)
solubility ([5]; aqueous surfactant solution (Tween 80), 1% w/v solution of T80, read-out: solubility of ACP): < 0.1 µg/mL
solubility ([5]; aqueous surfactant solution (Tween 80), Tween 80 (T80) 0.15 % w/v, read-out: ACP solubility): 0.0523 µg/mL (≈ 0.112 µM)
solubility ([5]; aqueous surfactant solution (Tween 80), Tween 80 (T80) 2 % w/v, read-out: ACP solubility): 0.194 µg/mL (≈ 0.417 µM)
solubility ([5]; aqueous surfactant solution (poloxamer 188), 1% w/v solution of P188, read-out: solubility of ACP): < 0.1 µg/mL
solubility ([5]; aqueous surfactant solution (poloxamer 188), Poloxamer 188 (P188) 0.15 % w/v, read-out: ACP solubility): 0.0075 µg/mL (≈ 0.0161 µM)
solubility ([5]; aqueous surfactant solution (poloxamer 188), Poloxamer 188 (P188) 2 % w/v, read-out: ACP solubility): 0.0202 µg/mL (≈ 0.0434 µM)
solubility ([5]; aqueous surfactant solution (poloxamer 407), Poloxamer 407 (P407) 0.15 % w/v, read-out: ACP solubility): 0.209 µg/mL (≈ 0.45 µM)
solubility ([5]; aqueous surfactant solution (poloxamer 407), Poloxamer 407 (P407) 2 % w/v, read-out: ACP solubility): 1.74 µg/mL (≈ 3.74 µM)
solubility ([5]; aqueous surfactant solution (polyvinyl alcohol), Polyvinyl Alcohol (PVA) 0.15 % w/v, read-out: ACP solubility): 0.0137 µg/mL (≈ 0.0294 µM)
solubility ([5]; aqueous surfactant solution (polyvinyl alcohol), Polyvinyl Alcohol (PVA) 2 % w/v, read-out: ACP solubility): 0.109 µg/mL (≈ 0.234 µM)
solubility [6]: ≥ 770 µg/mL
solubility of ACP in lipid ([7]; in 200 mg of GB (glyceryl di-behenate)): ~ 40 mg
solubility of ACP in lipid ([7]; in 200 mg of SP (stearyl palmitate)): > 80 mg
SMILES: CC#CC(=O)N1CCC[C@H]1c1nc(-c2ccc(C(=O)Nc3ccccn3)cc2)c2c(N)nccn12 [ACP, Acalabrutinib]
absolute oral bioavailability [1]: 22.83% ± 5.015%
excreted in faeces [2]: 84%
excreted in urine [2]: 12%
unchanged ACP, share of the total amount eliminated [2]: less than 2%
solubility of ACP ([3]; 0.01 N HCl (pH = 2)): 3730 µg/mL
solubility of ACP ([3]; 0.1 N HCl (pH = 1)): 29200 µg/mL
solubility of ACP ([3]; acetate or citrate buffer (pH = 4.5)): 159 µg/mL
maximum basic pKa [3]: 5.77
solubility above pH 6 [3]: practically insoluble
